# Experimental data taken from patent publication US20260315562A1, “NOVEL FEED-ADDITIVE COMPOSITION” (KYNTOX BIOTECH INDIA PRIVATE LIMITED, priority 2023, published 2026).
# What was measured:
# [1] = system: white spot syndrome virus (WSSV); conditions: dietary supplementation; Qian et al. 2021, Gong et al. 2022; cited from earlier work
# [2] = Safety of test sample in non-infected freshwater crabs (Placebo group); note: key: 0: Represents live animal; 1: Represents Animal Mortality; type: in vivo, P. hydrodromous; conditions: GML 5 mg/animal
# Experimental: Placebo: The term is used herein in reference to disease negative wherein the highest dose of test molecule has been injected, and evidences for safety of test molecules.
# (§1) Freshwater crabs P. hydrodromous were collected from Padavedu (12.6310070 79.052885°) Vellore, India.
# (§2) The animals with a body weight of 20-25 g were transported to the laboratory and maintained at room temperature (25° C.). The crabs were fed twice a day with boiled egg whites. The crabs were kept in the described condition for one week before the experiment.
# (§3) The anti-viral efficacy of GMVL and saponin-rich extract against WSSV was assessed in the freshwater crab, previously acclimated to laboratory conditions. The crabs were divided into different experimental groups containing 4 crabs per group and the experiment was performed in duplicates. The viral inoculum mixture was injected into the respective group after 3 h of pre-incubation. All the crabs were injected intramuscularly at the second abdominal segment. Briefly, healthy crabs received the injection as given above. The crabs were fed twice a day and observed regularly for gross signs of disease. The experiment was carried out up to several days depending on the survival after challenging with WSSV with/without above mentioned antagonist and mortality was recorded to plot a cumulative mortality graph.
# WSSV = assay: In vivo anti-viral bioassay: survival of freshwater crabs after WSSV challenge; for Animal survival/mortality: key: 0: Represents live animal; 1: Represents Animal Mortality; parameters: species or system P. hydrodromous
# Experimental: Positive Control: The term is used herein in reference to disease positive control where only WSSV virus is injected without any antagonist. This positive for the disease expression.
# The experimental groups have been divided in seven groups, Group-I-VII as described below:
# as §1, §2
# As described in earlier reports (Natarajan et al., 2017), haemolymph was drawn from WSSV infected shrimp using a 26-gauge syringe through heart puncture. The haemolymph was centrifuged at 3000 rpm for 20 minutes at 4° C. The supernatant was collected and it was centrifuged for 30 minutes at 4° C. and then it was filtered using 0.45p m and stored at −20° C. for further studies. The haemolymph were analyzed via PCR to confirm the presence of WSSV. To amplify the structural VP28 gene, a conventional PCR reaction was set up, which includes […], 5 pmol WSSV-VP28 primer (Table 1), 3 μl PCR-grade water, and 1 μl template DNA (Sundaram et al., 2016; Yoganandhan et al., 2003). The viral titer quantified through real time PCR, was 1.6×10^6 copies μL−1 which served as the stock for this study.
# as §3
# [3] = preincubated with WSSV, co-injected (i.m)
smiles,measurement,setting,value
"CCCCCCCCCCCC(=O)OCC(O)CO (stereo not drawn) [GML, Glycerol monolaurate]",WSSV copy number,[1],reduced the WSSV copy number
same,mortality of WSSV-infected crayfish,[1],reduce the mortality
same,Animal survival/mortality (Placebo),[2]; 0 h,0
same,Animal survival/mortality (Placebo),[2]; 6 h,0
same,Animal survival/mortality (Placebo),[2]; 12 h,0
same,Animal survival/mortality (Placebo),[2]; 24 h,0
same,Animal survival/mortality (Placebo),[2]; 48 h,0
same,Animal survival/mortality (Placebo),[2]; 72 h,0
same,Animal survival/mortality (Placebo),[2]; 96 h,0
same,Animal survival/mortality (Placebo),[2]; 120 h,0
same,Animal survival/mortality (Placebo),[2]; 144 h,0
same,animal survival time,"WSSV; 3 mg/animal, preincubated with WSSV, co-injected (i.m)",> 140 h
same,time within which all animals in the test groups died post challenging,"WSSV; 1 and 3 mg/animal, preincubated with WSSV, co-injected (i.m)",≤ 150 h
same,Animal survival/mortality,"WSSV; GML 1 mg/animal, 0 h",0
same,Animal survival/mortality,"WSSV; GML 1 mg/animal, 6 h",0
same,Animal survival/mortality,"WSSV; GML 1 mg/animal, 12 h",0
same,Animal survival/mortality,"WSSV; GML 1 mg/animal, 24 h",1
same,Animal survival/mortality,"WSSV; GML 1 mg/animal, 48 h",0
same,Animal survival/mortality,"WSSV; GML 1 mg/animal, 72 h",1
same,Animal survival/mortality,"WSSV; GML 1 mg/animal, 96 h",1
same,Animal survival/mortality,"WSSV; GML 1 mg/animal, 120 h",1
same,Animal survival/mortality,"WSSV; GML 3 mg/animal, 0 h",0
same,Animal survival/mortality,"WSSV; GML 3 mg/animal, 6 h",0
same,Animal survival/mortality,"WSSV; GML 3 mg/animal, 12 h",0
same,Animal survival/mortality,"WSSV; GML 3 mg/animal, 24 h",1
same,Animal survival/mortality,"WSSV; GML 3 mg/animal, 48 h",0
same,Animal survival/mortality,"WSSV; GML 3 mg/animal, 72 h",1
same,Animal survival/mortality,"WSSV; GML 3 mg/animal, 96 h",1
same,Animal survival/mortality,"WSSV; GML 3 mg/animal, 120 h",1
same,Animal survival/mortality,"WSSV; GML 3 mg/animal, 144 h",1
same,mortality (in words),WSSV; alone or in combination,the mortality is significant
same,inhibition of the virus,WSSV; [3],partial inhibition of the virus
same,protection of the animal from lethality,WSSV; [3],could not protect the animal from lethality
